Where a name gives a salt, the structure may show the parent alone.
Columns and labels:
ATM = ATM (Homo sapiens (Human), UniProt Q13315); assay: ATM in Cell Western Assay (pKAP1 in etoposide-treated MCF-7 cells); type: cell-based
Procedure, shortened: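 After paraformaldehyde fixation and Triton X-100 permeabilization, immunostained plates were read by infrared scanning (ODYSSEY CLx). Compound was given as 10 doses, 3-fold dilutions from a 1 μM final top concentration.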

DNA-PK = DNA-PK (Homo sapiens (Human), UniProt P78527); assay: DNA-PK Enzyme-Linked Immunosorbent Assay (phosphorylation of GST-p53 (1-101) peptide); type: biochemical; conditions: ELISA
Procedure, shortened: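 Inhibition measured by 450 nm absorbance after HRP/TMB detection of phospho-Ser15 on immobilized GST-p53 (1-101). The kinase reaction used 0.1 μg/mL DNA-PK and 20 μM ATP, 1 h at 25 °C. Ten 3-fold compound dilutions, top final concentration 100 nM.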

[1] = pKAP1 in etoposide-treated MCF-7 cells
[2] = MCF-7 cells, etoposide 100 μM, 1 hr, pKAP1 readout

Sequence of ATM (Q13315 whole entry): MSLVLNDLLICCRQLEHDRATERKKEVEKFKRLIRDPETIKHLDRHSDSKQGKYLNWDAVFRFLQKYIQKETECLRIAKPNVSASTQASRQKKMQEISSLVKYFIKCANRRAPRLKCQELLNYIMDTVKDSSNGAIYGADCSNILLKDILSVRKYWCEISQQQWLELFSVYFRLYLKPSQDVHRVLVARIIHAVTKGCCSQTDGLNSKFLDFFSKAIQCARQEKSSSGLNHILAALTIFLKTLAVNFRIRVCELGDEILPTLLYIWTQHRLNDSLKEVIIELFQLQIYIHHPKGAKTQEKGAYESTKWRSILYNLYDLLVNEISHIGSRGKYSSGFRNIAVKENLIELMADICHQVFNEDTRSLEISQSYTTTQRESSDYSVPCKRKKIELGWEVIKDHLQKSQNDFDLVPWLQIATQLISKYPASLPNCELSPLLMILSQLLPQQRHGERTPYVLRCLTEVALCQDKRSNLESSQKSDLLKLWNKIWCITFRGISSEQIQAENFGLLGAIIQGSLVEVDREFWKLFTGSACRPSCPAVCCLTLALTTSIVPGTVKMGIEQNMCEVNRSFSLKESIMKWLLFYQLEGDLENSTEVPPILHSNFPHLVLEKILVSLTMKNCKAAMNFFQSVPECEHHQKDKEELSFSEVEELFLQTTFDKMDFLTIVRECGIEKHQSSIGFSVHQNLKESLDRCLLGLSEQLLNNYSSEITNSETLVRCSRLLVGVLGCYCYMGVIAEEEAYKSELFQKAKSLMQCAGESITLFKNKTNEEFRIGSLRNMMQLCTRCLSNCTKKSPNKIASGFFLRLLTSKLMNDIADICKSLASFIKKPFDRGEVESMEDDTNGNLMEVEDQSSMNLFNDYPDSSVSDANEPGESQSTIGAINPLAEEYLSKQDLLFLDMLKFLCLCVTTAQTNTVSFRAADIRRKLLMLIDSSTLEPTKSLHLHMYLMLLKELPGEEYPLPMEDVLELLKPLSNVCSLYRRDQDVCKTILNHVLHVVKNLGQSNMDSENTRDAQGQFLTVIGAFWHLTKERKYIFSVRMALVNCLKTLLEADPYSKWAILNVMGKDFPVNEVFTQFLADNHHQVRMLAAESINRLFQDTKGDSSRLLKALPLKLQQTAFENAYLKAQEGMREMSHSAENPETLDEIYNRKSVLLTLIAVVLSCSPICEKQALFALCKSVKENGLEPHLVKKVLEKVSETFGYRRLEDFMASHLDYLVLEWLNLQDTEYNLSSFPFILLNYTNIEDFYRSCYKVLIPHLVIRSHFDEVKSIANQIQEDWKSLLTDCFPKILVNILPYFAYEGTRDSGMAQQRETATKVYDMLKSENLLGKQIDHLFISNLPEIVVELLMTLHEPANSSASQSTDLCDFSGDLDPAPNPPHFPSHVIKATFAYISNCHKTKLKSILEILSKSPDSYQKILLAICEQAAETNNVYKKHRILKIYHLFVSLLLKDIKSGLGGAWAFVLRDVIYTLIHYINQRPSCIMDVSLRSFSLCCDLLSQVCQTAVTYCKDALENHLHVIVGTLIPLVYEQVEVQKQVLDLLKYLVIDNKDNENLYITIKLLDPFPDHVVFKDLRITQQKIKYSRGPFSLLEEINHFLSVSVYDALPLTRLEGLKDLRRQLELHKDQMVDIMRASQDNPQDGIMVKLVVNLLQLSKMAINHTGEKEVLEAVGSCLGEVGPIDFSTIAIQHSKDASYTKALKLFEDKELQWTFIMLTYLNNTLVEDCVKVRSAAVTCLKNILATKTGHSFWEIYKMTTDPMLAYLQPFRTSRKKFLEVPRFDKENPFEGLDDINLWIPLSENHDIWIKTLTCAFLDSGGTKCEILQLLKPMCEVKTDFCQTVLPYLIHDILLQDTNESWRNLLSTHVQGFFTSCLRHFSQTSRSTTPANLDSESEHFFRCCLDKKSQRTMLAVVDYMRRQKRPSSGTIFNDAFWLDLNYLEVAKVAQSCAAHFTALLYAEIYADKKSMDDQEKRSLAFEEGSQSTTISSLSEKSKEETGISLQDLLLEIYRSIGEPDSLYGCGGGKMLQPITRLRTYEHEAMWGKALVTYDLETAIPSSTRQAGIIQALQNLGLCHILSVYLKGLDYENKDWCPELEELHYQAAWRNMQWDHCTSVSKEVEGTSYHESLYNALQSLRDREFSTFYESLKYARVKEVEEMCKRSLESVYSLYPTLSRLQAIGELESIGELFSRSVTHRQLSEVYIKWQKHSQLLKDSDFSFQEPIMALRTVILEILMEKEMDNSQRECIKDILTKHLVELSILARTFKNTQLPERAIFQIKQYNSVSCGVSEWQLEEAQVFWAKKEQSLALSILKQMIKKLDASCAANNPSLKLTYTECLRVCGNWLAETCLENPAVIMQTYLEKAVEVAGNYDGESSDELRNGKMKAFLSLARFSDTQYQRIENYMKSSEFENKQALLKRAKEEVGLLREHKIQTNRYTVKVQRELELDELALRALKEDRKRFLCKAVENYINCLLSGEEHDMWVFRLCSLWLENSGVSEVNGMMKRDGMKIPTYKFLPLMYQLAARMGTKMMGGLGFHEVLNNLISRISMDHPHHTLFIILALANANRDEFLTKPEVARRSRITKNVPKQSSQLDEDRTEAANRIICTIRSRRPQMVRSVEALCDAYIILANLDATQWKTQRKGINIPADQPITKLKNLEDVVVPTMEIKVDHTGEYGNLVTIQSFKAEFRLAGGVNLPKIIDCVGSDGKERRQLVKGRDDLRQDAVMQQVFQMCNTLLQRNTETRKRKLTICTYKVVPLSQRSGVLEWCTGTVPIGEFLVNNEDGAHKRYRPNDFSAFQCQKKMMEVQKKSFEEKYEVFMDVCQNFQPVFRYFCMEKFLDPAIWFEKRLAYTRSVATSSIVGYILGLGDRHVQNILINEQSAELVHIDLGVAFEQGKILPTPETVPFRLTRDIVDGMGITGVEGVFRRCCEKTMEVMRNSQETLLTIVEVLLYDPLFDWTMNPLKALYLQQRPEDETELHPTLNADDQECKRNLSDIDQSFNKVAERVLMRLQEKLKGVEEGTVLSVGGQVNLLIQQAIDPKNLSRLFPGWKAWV

SMILES	IC50 (ATM; [1]) [nM]	IC50 (DNA-PK; 20 μM ATP) [nM]	IC50 (ATM; [2]) [nM]	IC50 (DNA-PK; ATP 20 μM) [nM]
CN1C(=O)C2(CCC2)c2c1cnc1ccc(-c3cnc(N4CCC(N5CCOCC5)CC4)c(NS(=O)(=O)N(C)C)c3)cc21 [Example 355, 8′-{5-[(Dimethylsulfamoyl)amino]-6-[4-(morpholin-4-yl)piperidin-1-yl]pyridin-3-yl}-3′-methyl-2′,3′-dihydrospiro[cyclobutane-1,1′-pyrrolo[2,3-c]quinoline]-2′-one]	1 to 100	1 to 100		
CC(C)NCCOc1ncc(-c2cc3c(cc2F)ncc2c3[C@]3(C[C@H](c4cccc(=O)[nH]4)C3)C(=O)N2C)cc1NS(C)(=O)=O [Example 440, cis-N-(5-(7′-Fluoro-3′-methyl-2′-oxo-3-(6-oxo-1,6-dihydropyridin-2-yl)-2′,3′-dihydrospiro[cyclobutane-1,1′-pyrrolo[2,3-c]quinolin]-8′-yl)-2-(2-(isopropylamino)ethoxy)pyridin-3-yl)methanesulfonamide]	> 100	1 to 100		
CC(C)NCCOc1ncc(-c2cc3c4c(cnc3cc2F)N(C)C(=O)C42CN(C3CCCC3)C2)cc1NS(C)(=O)=O [Example 498, N-(5-(1-Cyclopentyl-7′-fluoro-3′-methyl-2′-oxo-2′,3′-dihydrospiro[azetidine-3,1′-pyrrolo[2,3-c]quinolin]-8′-yl)-2-(2-(isopropylamino)ethoxy)pyridin-3-yl)methanesulfonamide]	1 to 100	0.5 to 1		
CN1C(=O)C2(CCC2)c2c1cnc1cc(F)c(-c3cnc(N4CC(N(C)C)C4)c(NS(=O)(=O)c4ccc(F)cc4F)c3)cc21 [Example 315, N-(2-(3-(Dimethylamino)azetidin-1-yl)-5-(7′-fluoro-3′-methyl-2′-oxo-2′,3′-dihydrospiro[cyclobulane-1,1′-pyrrolo[2,3-c]quinolin]-8′-yl)pyridin-3-yl)-2,4-difluorobenzenesulfonamide hydrochloride]			1 to 100	1 to 100
CCc1ccc(N2CC3(C2)C(=O)N(C)c2cnc4cc(F)c(-c5cnc(OCCNC(C)C)c(NS(C)(=O)=O)c5)cc4c23)cc1 [Example 529, N-(5-(1-(4-Ethylphenyl)-7′-fluoro-3′-methyl-2′-oxo-2′,3′-dihydrospiro[azetidine-3,1′-pyrrolo[2,3-c]quinolin]-8′-yl)-2-(2-(isopropylamino)ethoxy)pyridin-3-yl)methanesulfonamide]	1 to 100	1 to 100		
CNCCCCOc1ncc(-c2ccc3ncc4c(c3c2)C2(CC2)C(=O)N4C)cc1NS(=O)(=O)c1ccccc1 [Example 75, N-(5-(3-Methyl-2′-oxo-2′,3′-dihydrospiro [cyclopropane-1,1′-pyrrolo[2,3-c]quinolin]-8′-yl)-2-(4-(methylamino)butoxy)pyridin-3-yl) benzenesulfonamide]			1 to 100	1 to 100

Second part, the molecule after the results:

IC50 (ATM; [1]) [nM]	IC50 (DNA-PK; 20 μM ATP) [nM]	IC50 (ATM; [2]) [nM]	IC50 (DNA-PK; ATP 20 μM) [nM]	SMILES
		1 to 100	1 to 100	COCCN(CCOC)S(=O)(=O)Nc1cc(-c2ccc3ncc4c(c3c2)C2(CCC2)C(=O)N4C)cnc1OCCCN(C)C [Example 181, 8′-(5-{[Bis(2-methoxyethyl)sulfamoyl]amino}-6-[3-(dimethylamino)propoxy]pyridine-3-yl)-3′-methyl-2′,3′-dihydrospiro [cyclobutane-1,1′-pyrrolo[2,3-c]quinoline]-2′-one]
		1 to 100	1 to 100	CN1C(=O)C2(CC2)c2c1cnc1ccc(-c3cnc(OCCC4CCCCN4C)c(NS(=O)(=O)c4ccccc4)c3)cc21 (stereo not drawn) [Example 81, N-(5-(3′-Methyl-2′-oxo-2′,3′-dihydrospiro [cyclopropane-1,1′-pyrrolo[2,3-c]quinolin]-8′-yl)-2-(2-(1-methylpiperidin-2-yl)ethoxy)pyridin-3-yl)benzenesulfonamide]
		1 to 100	< 0.5	COc1ncc(-c2ccc3ncc4c(c3c2)C2(CC2)C(=O)N4CC#N)cc1NS(=O)(=O)c1ccccc1 [Example 21, N-(5-(3′-(Cyanomethyl)-2′-oxo-2′,3′-dihydrospiro[cyclopropane-1,1′-pyrrolo[2,3-c]quinolin]-8′-yl)-2-methoxypyridin-3-yl)benzenesulfonamide]

Source: patent publication US12187742B2 (XRAD Therapeutics, Inc., priority 2018, dated 2025)
